Measurements: the supplement of paper PMC10307832

Assays:
Test in all cases: relative viability (nuclei count vs DMSO), 5 days (fraction); higher = more cells survive
[1] = compound: Cc1ccc2nc(NCCN)c3ncc(C)n3c2c1 + CC(=O)Nc1cccc(-n2c(=O)n(C3CC3)c(=O)c3c(Nc4ccc(I)cc4F)n(C)c(=O)c(C)c32)c1 [Trametinib] (partner 0.02 µM)
In short: (§1)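 For relative viability, nuclei counts in treated wells were divided by those in vehicle wells. Lung cancer cell lines had been pin-tool dosed in 1536-well plates the day after seeding and cultured for 5 days, then fixed and stained in one step (final 0.05% Triton X-100, 1% formaldehyde, 1 ug/ml Hoechst) and imaged at 4×. Doses were one drug alone or a fixed anchor-drug dose plus five library-drug doses (not always all listed) in √10 steps, and values are duplicate-plate medians.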

[2] = compound: Cc1ccc2nc(NCCN)c3ncc(C)n3c2c1 + C[C@]1(O)C[C@@H](c2nc(-c3ccc4ccc(-c5ccccc5)nc4c3)c3c(N)nccn32)C1 [Linsitinib] (partner 1 µM)
In short: as §1

[3] = compound: Cc1ccc2nc(NCCN)c3ncc(C)n3c2c1 + CC(=O)c1c(C)c2cnc(Nc3ccc(N4CCNCC4)cn3)nc2n(C2CCCC2)c1=O [Palbociclib] (partner 0.5 µM)
In short: as §1

[4] = compound: Cc1ccc2nc(NCCN)c3ncc(C)n3c2c1 + CC1(C)CCC(c2ccc(Cl)cc2)=C(CN2CCN(c3ccc(C(=O)NS(=O)(=O)c4ccc(N[C@H](CCN5CCOCC5)CSc5ccccc5)c(S(=O)(=O)C(F)(F)F)c4)cc3)CC2)C1 [Navitoclax] (partner 0.5 µM)
In short: as §1

Cell Line | relative viability ([1]; first compound 0.04 µM) | relative viability ([1]; first compound 0.1265 µM) | relative viability ([1]; first compound 0.4 µM) | relative viability ([1]; first compound 1.265 µM) | relative viability ([1]; first compound 4 µM) | relative viability ([2]; first compound 0.04 µM) | relative viability ([2]; first compound 0.1265 µM) | relative viability ([2]; first compound 0.4 µM) | relative viability ([2]; first compound 1.265 µM) | relative viability ([2]; first compound 4 µM) | relative viability ([3]; first compound 0.04 µM) | relative viability ([3]; first compound 0.1265 µM) | relative viability ([3]; first compound 0.4 µM) | relative viability ([3]; first compound 1.265 µM) | relative viability ([3]; first compound 4 µM) | relative viability ([4]; first compound 0.04 µM) | relative viability ([4]; first compound 0.1265 µM) | relative viability ([4]; first compound 0.4 µM) | relative viability ([4]; first compound 1.265 µM) | relative viability ([4]; first compound 4 µM)
NCI-H2009 | 0.309 | 0.251 | 0.286 | 0.273 | 0.28 | 1.15 | 1.14 | 1.22 | 1.22 | 1.05 | 0.238 | 0.202 | 0.245 | 0.275 | 0.295 | 1.19 | 1.08 | 1.17 | 1.17 | 1.09
201T | 0.72 | 0.696 | 0.713 | 0.738 | 0.684 | 1 | 1.09 | 1.04 | 0.98 | 0.992 | 0.396 | 0.367 | 0.33 | 0.363 | 0.323 | 1.25 | 1.22 | 1.14 | 1.17 | 1.23
NCI-H23 | 0.444 | 0.391 | 0.384 | 0.426 | 0.308 | 0.746 | 0.489 | 0.55 | 0.611 | 0.576 | 0.501 | 0.562 | 0.437 | 0.469 | 0.309 | 0.867 | 0.904 | 0.822 | 0.791 | 0.814
LOU-NH91 | 0.819 | 0.792 | 0.794 | 0.787 | 0.775 | 0.964 | 0.865 | 0.977 | 0.942 | 0.959 | 0.551 | 0.509 | 0.52 | 0.542 | 0.464 | 0.684 | 0.687 | 0.724 | 0.672 | 0.65
NCI-H2085 | 1.03 | 0.63 | 0.502 | 0.491 | 0.499 | 0.894 | 0.941 | 0.928 | 0.862 | 0.87 | 0.49 | 0.514 | 0.465 | 0.469 | 0.478 | 1.27 | 1.12 | 1.08 | 1.06 | 1.08
COR-L23 | 0.581 | 0.564 | 0.624 | 0.648 | 0.506 | 0.993 | 0.773 | 0.873 | 0.988 | 0.816 | 0.383 | 0.301 | 0.323 | 0.318 | 0.323 | 1.05 | 0.944 | 1.1 | 0.973 | 0.886
BEN | 0.97 | 0.929 | 1.07 | 0.958 | 1.05 | 0.916 | 0.785 | 1.03 | 0.795 | 0.914 | 0.506 | 0.484 | 0.479 | 0.465 | 0.48 | 0.0603 | 0.0647 | 0.0665 | 0.0492 | 0.0759
LK-2 | 0.921 | 0.576 | 0.682 | 0.617 | 0.672 | 0.561 | 0.439 | 0.531 | 0.194 | 0.37 | 0.502 | 0.811 | – | – | 0.725 | 0.831 | 0.65 | 0.886 | 0.77 | 0.789
NCI-H322M | 0.522 | 0.538 | 0.495 | 0.502 | 0.535 | 0.889 | 0.907 | 0.857 | 0.79 | 0.899 | 0.506 | 0.491 | 0.512 | 0.468 | 0.542 | 1.15 | 1.16 | 1.19 | 1.25 | 1.22
